From the Deep4Chem optical property database
Where “and” joins values, the source holds several entries; their conditions need not be identical. Identical values can stand only once. One block for each compound: values may come before it.

Assay: solvent given as SMILES

emission maximum (in O): 552 nm
Structure (SMILES): CCN(CC)c1ccc2c(c1)C(C)(C)C(=O)C=C2

emission maximum (in ClC(Cl)Cl): 517.5 nm
Structure (SMILES): CC1=CC(C)=[N+]2C1=C(c1ccc(I)cc1)c1c(C)cc(C)n1[B-]2(Oc1ccccc1)Oc1ccccc1

emission maximum (in O): 426 nm
Structure (SMILES): Cc1cc(/N=C/c2cc(S(=O)(=O)[O][Na])ccc2O)c(/N=C/c2cc(S(=O)(=O)[O][Na])ccc2O)cc1C

emission maximum (in ClCCl): 437 nm
Structure (SMILES): COc1ccc(C#Cc2cc(C#Cc3ccc(OC)cc3)c(C#Cc3ccc(OC)cc3)c(C#Cc3ccc(OC)cc3)c2C#Cc2ccc(OC)cc2)cc1

emission maximum (in ClCCl): 401 nm
Structure (SMILES): FC(F)(F)c1ccc(C2=Cc3ccccc3[Si]2(c2ccccc2)c2ccccc2)cc1

emission maximum (in C1CCOC1): 707 nm
Structure (SMILES): O=C1/C(=C2\Nc3cc4ccc5cccc6ccc(c3C2=O)c4c56)Nc2cc3ccc4cccc5ccc(c21)c3c45

emission maximum (in C1COCCO1): 392 nm
emission maximum (in CC#N): 405 nm
emission maximum (in CO): 424 nm
emission maximum (in ClCCl): 402 nm
Structure (SMILES): CCCCNC(=O)c1nc2c(N(C)C)nc(N(C)C)nc2n1Cc1ccccc1

emission maximum (in CC#N): 598 nm
emission maximum (in CCCCCC): 604 nm
emission maximum (in ClCCl): 602 nm
Structure (SMILES): CCCCCCCCOc1ccc(C2=C3C(C)=C(C#Cc4ccc(B(c5c(C)cc(C)cc5C)c5c(C)cc(C)cc5C)cc4)C(C)=[N+]3[B-](F)(F)n3c(C)c(C#Cc4ccc(B(c5c(C)cc(C)cc5C)c5c(C)cc(C)cc5C)cc4)c(C)c32)cc1

emission maximum (in CC#N): 437 nm
Structure (SMILES): Cc1cc2nc3[nH]c(=O)[nH]c(=O)c3nc2cc1C

emission maximum (in ClCCl): 379 nm
Structure (SMILES): c1ccc(N(c2ccccc2)c2ccc(-n3ccc4cc(-c5ccc(C6(c7ccccc7)c7ccccc7-c7ccccc76)cc5)ccc43)cc2)cc1

emission maximum (in CC1CCCO1): 645 nm
Structure (SMILES): CC1=CC(/C=C/c2ccc(C)cc2)=[N+]2C1=C(c1ccccc1)c1c(C)cc(/C=C/c3ccc(C)cc3)n1[B-]2(F)F

emission maximum (in C1CCOC1): 502 nm
Structure (SMILES): O=C(c1ccc(/C(=C(/c2ccccc2)c2ccc(C(=O)c3ccc(-n4c5ccccc5c5ccccc54)cc3)cc2)c2ccccc2)cc1)c1ccc(-n2c3ccccc3c3ccccc32)cc1

emission maximum (in CCO): 564 nm
Structure (SMILES): CCOC(=O)c1cc(C(=O)OCC)c2cc(N(C)C)ccc2n1

emission maximum (in c1ccccc1): 545 nm
Structure (SMILES): CCOC(=O)c1sc2nc3c(c(C#N)c2c1N)CCCC3

emission maximum (in ClC(Cl)Cl): 464.6 nm
Structure (SMILES): F[B-]1(F)OC(c2ccc(C(F)(F)F)cc2)=Cc2c3ccccc3cc[n+]21

emission maximum (in ClC(Cl)Cl): 655 nm
Structure (SMILES): CCCCCCCCCCCCSc1cc2c3c(ccc4c5c(SCCCCCCCCCCCC)cc6c7c(ccc(c1c34)c75)C(=O)N(C1CCCCC1)C6=O)C(=O)N(C1CCCCC1)C2=O

emission maximum (in CC#N): 450 nm
emission maximum (in CCCCCC): 392 nm
Structure (SMILES): Nc1ccc(/C=C/c2ccc3ccccc3c2)cc1

emission maximum (in CC#N): 480 nm
Structure (SMILES): CCN(CC)c1ccc2cc(-c3nc4ccccc4n3C)c(=O)oc2c1

emission maximum (in ClC(Cl)Cl): 676 nm
Structure (SMILES): CCCCCCCCOc1ccc(-c2c3c4n(c(-c5ccc(OCCCCCCCC)cc5)c3c3n2[B-](F)(F)[n+]2c(sc5ccccc52)N=3)[B-](F)(F)[n+]2c(sc3ccccc32)N=4)cc1

emission maximum (in C1CCOC1): 450 nm
Structure (SMILES): C1=Cc2ccccc2C(=Cc2ccc(-c3ccc(C=C4c5ccccc5-c5ccccc54)cc3)cc2)c2ccccc21

emission maximum (in CC#N): 629 nm
Structure (SMILES): CC1=CC(/C=C/c2ccc([N+](C)(C)C)cc2)=[N+]2C1=C(c1ccc(C#CCO[C@@H]3O[C@H](CO)[C@@H](O)C(O)[C@H]3O)cc1)c1c(C)cc(/C=C/c3ccc([N+](C)(C)C)cc3)n1[B-]2(F)F (some centres undefined)

The remaining lines, values behind:

Structure (SMILES): CCC1=C(C)C2=C(c3c4ccccc4cc4ccccc34)c3c(C)c(CC)c(C)n3[B-](F)(F)[N+]2=C1C
emission maximum (in CC#N): 537 nm
emission maximum (in CCCCCC): 539 nm
emission maximum (in CCO): 539 nm
emission maximum (in CN(C)C=O): 541 nm
emission maximum (in Cc1ccccc1): 544 nm
emission maximum (in ClCCl): 543 nm

Structure (SMILES): CCC1=C(C)C2=Cc3c4ccccc4c4n3[B-](c3ccc(OC)cc3)(Oc3ccccc3-4)[N+]2=C1C (centres undefined)
emission maximum (in CC#N): 634 nm
emission maximum (in CCCCCC): 635 nm
emission maximum (in Cc1ccccc1): 641 nm
emission maximum (in ClCCl): 639 nm

Structure (SMILES): CC(=O)c1ccc(-c2cc(C)[o+]c(C)c2)cc1
emission maximum (in ClCCl): 405 nm

Structure (SMILES): CC(C)(C)c1ccc2c(c1)Sc1cc(C(C)(C)C)ccc1N2c1ccc2c(ccc3nc4ccc5cc(N6c7ccc(C(C)(C)C)cc7Sc7cc(C(C)(C)C)ccc76)ccc5c4nc32)c1
emission maximum (in C1CCCCC1): 575 nm
emission maximum (in Cc1ccccc1): 682 nm

Structure (SMILES): C[n+]1cc2ccc3c[n+](C)c4ccccc4c3c2c2ccccc21
emission maximum (in CC#N): 504 nm

Structure (SMILES): CCN(CC)c1ccc2c(C)cc(=O)oc2c1
emission maximum (in C1CCCCC1): 395 nm
emission maximum (in CC#N): 430 nm
emission maximum (in CCCCCCCCO): 443 nm
emission maximum (in CCCCCCO): 444 nm
emission maximum (in CCCCO): 447 nm
emission maximum (in CCCO): 452 nm
emission maximum (in CCO): 454 nm and 451 nm
emission maximum (in CCOC(C)=O): 416 nm
emission maximum (in CO): 462 nm
emission maximum (in O): 470 nm
emission maximum (in OCC(O)CO): 463 nm

Structure (SMILES): CCC1=C(C)C2=C(C)c3c(C)c(CC)c(C)n3[B-](F)(F)[N+]2=C1C
emission maximum (in C1CCCCC1): 537.2 nm
emission maximum (in C1CCOC1): 534 nm
emission maximum (in C1COCCO1): 533.2 nm
emission maximum (in CC#N): 530.4 nm
emission maximum (in CC(C)=O): 532 nm
emission maximum (in CC(C)O): 534 nm
emission maximum (in CCC(C)C): 534.4 nm
emission maximum (in CCCCCC): 533.6 nm
emission maximum (in CCCCCCCC): 535.2 nm
emission maximum (in CCCCCCCCCCO): 534.8 nm
emission maximum (in CCCCCCCCO): 534.4 nm
emission maximum (in CCCCCCO): 534.8 nm
emission maximum (in CCCCO): 534.4 nm
emission maximum (in CCCO): 534 nm
emission maximum (in CCO): 532.4 nm
emission maximum (in CCOC(C)=O): 531.6 nm
emission maximum (in CCOCC): 532.8 nm
emission maximum (in CN1CCCC1=O): 533.2 nm
emission maximum (in CN(C)C=O): 532.8 nm
emission maximum (in CO): 531.6 nm
emission maximum (in Cc1ccccc1): 536.4 nm
emission maximum (in ClCCl): 534 nm
emission maximum (in OCC(F)(F)F): 535.2 nm
emission maximum (in OCCO): 536.4 nm
emission maximum (in OCCOc1ccccc1): 536.8 nm
emission maximum (in c1ccccc1): 536.4 nm

Structure (SMILES): C(=C\c1c2ccccc2cc2ccccc12)/c1ccc2ccccc2c1
emission maximum (in CC1CCCCC1): 488 nm
emission maximum (in CC#N): 490 nm

Structure (SMILES): COc1ccc(/C=C/c2nc(/C=C/c3ccc(N(C)C)cc3)cc(/C=C/c3ccc(N(C)C)cc3)n2)cc1
emission maximum (in C1CCOC1): 522 nm
emission maximum (in CC#N): 581 nm
emission maximum (in CC(C)=O): 559 nm
emission maximum (in CCCCCCC): 450 nm
emission maximum (in CS(C)=O): 598 nm
emission maximum (in Cc1ccccc1): 480 nm
emission maximum (in ClCCl): 533 nm

Structure (SMILES): CCn1c2ccc(-c3ccc(-c4cccs4)s3)cc2c2cc(-c3ccc(-c4cccs4)s3)ccc21
emission maximum (in ClCCl): 430 nm

Structure (SMILES): CCCCCCCCCCCCN1C(=O)c2c(c3ccc4cc(-c5cccs5)c(OC)cc4c3c3c2ccc2cc(-c4cccs4)c(OC)cc23)C1=O
emission maximum (in ClCCl): 545 nm

Structure (SMILES): Cc1cc(C)c(B(c2ccsc2-c2sccc2P(=O)(c2ccccc2)c2ccccc2)c2c(C)cc(C)cc2C)c(C)c1
emission maximum (in CO): 512 nm

Structure (SMILES): c1ccc(-c2cc(-c3ccccc3)cc(-c3ccc4c(c3)C3(c5ccccc5-4)c4ccccc4-c4c3c3c5ccccc5c(-c5cc(-c6ccccc6)cc(-c6ccccc6)c5)cc3c3ccccc43)c2)cc1 (centres undefined)
emission maximum (in C1CCOC1): 440 nm

Structure (SMILES): COc1ccc(OC)cc1
emission maximum (in C1CCCCC1): 323.21 nm

Structure (SMILES): COc1ccc(N(c2ccc(OC)cc2)c2ccc3c4cccc5c(N(c6ccc(OC)cc6)c6ccc(OC)cc6)ccc(c6cccc2c63)c54)cc1
emission maximum (in C1CCCCC1): 551 nm
emission maximum (in C1CCOC1): 583 nm
emission maximum (in CC#N): 598 nm
emission maximum (in Cc1ccccc1): 574 nm
emission maximum (in ClCCl): 591 nm

Structure (SMILES): COc1ccc(C#Cc2c3ccccc3c(C#Cc3ccc(OC)cc3)c3cc4sc(C)cc4cc23)cc1
emission maximum (in ClCCl): 538 nm

Structure (SMILES): O=S(=O)([O-])c1ccc([O-])c2ccccc12
emission maximum (in O): 435 nm
